Experimental data published in PubChem BioAssay AID2060611 (Molecular Pharmacology Branch, DTP, NCI, 2025).

Tested on: 628569-122-R-J1-PDC complex spheroid viability
Assay: Anticancer human tumor 628569-122-R-J1-PDC patient-derived head and neck squamous carcinoma cell line growth inhibition [CLK]
Conditions: for IC50: curve of first compound; for viability, T/C: stronger effect = lower value
From the text: A high-throughput screen of multi-cell type tumor spheroids was designed to identify active combinations of […] and targeted small molecules. Complex spheroids include a stromal component modeled by human endothelial cells (HUVEC) and fibroblasts modeled by human mesenchymal stem cells (MSCs). The concentration ranges selected for each drug and investigational agent were based upon clinically achievable concentrations if the clinical Cmax of the agent was known.
Compounds. The drugs and investigational agents: cirtuvivint (SM08502; NSC835563), CC-671 (NSC850746), vemurafenib (NSC761431), tapotoclax (NSC804041), sotorasib (NSC818433), adagrasib (NSC831453), MRTX-1133 (NSC836407), BAY2416964 (NSC825713), copanlisib (NSC816437), inavolisib (NSC800729), abemaciclib (NSC768073), osimertinib (NSC779217), entinostat (NSC756642), eltanexor (KPT-8602, NSC794443), venetoclax (NSC766270), ceralasertib (NSC777638), bortezomib (NSC756655), olaparib (NSC753686), talazoparib (NSC767125), alisertib (NSC759677), peposertib (NSC802822), gemcitabine (NSC613327), 5-fluorouracil (NSC19893), SN-38 (NSC673596), oxaliplatin (NSC266046), paclitaxel (NSC125973), and doxorubicin (NSC123127), were obtained from the National Cancer Institute (NCI) Developmental Therapeutics Program Chemical Repository. The FDA-approved anticancer drug set is available from the Developmental Therapeutics Program at https://dtp.cancer.gov/organization/dscb/obtaining/available plates.htm. […] The stock solutions were prepared in dimethyl sulfoxide (DMSO, Sigma-Aldrich, St. Louis, MO, cat. D2650), except for the platinum complexes which were prepared in saline (Quality Biological, Gaithersburg, MD, cat. 114-055-101), at 800-fold the tested concentration and stored at -70 degrees C prior to their use. All drugs and investigational agents were tested over a range starting from a high concentration at or near the clinical Cmax and decreasing in half-log increments. If the clinical Cmax for an agent had not been determined, the highest concentration tested was 10 microM.
Cell Culture. All cells were maintained in an incubator at 37 degrees C and 5% CO2 with 95% humidity. The PDC lines were cultured according to standard operating procedures established by the NCI PDMR. Briefly, all PDCs were thawed and cultured in Matrigel-coated flasks prepared with a working solution of 1X Ham's F-12 nutrient mix, without supplementation (Invitrogen, Waltham, MA, cat. 11765054), 100 U/mL penicillin-streptomycin (Invitrogen, cat. 15140122), and 2.5% Matrigel (Corning Inc., Corning, NY, cat. 354248) for the first three passages. The 947758-054-R-J2-PDC line was cultured in 6B/Colon 1A media, which includes advanced DMEM/F-12 (Thermo Fisher Scientific, cat. 12634028), 10 mM HEPES (Thermo Fisher Scientific, cat. 15630080), 1X GlutaMAX supplement (Thermo Fisher Scientific, cat. 35050061), 0.1 mg/mL primocin (InvivoGen, cat. ant-pm-2), 10% defined fetal bovine serum, heat inactivated (HyClone Laboratories Inc., cat. SH30070.03HI), 1.25 mM N-Acetyl-L-cysteine (Sigma-Aldrich, cat. A9165), 10 mM nicotinamide (Sigma-Aldrich, cat. N0636), 1X B-27 supplement (Thermo Fisher Scientific, cat. 17504044), 1X N-2 supplement (Thermo Fisher Scientific, cat. 17502048), and 10 microM Y-27632 dihydrochloride (Tocris Bioscience, cat. 1254). The 876862-298-R-J1-PDC was cultured in 6E media, which includes all 6B/Colon 1A media components plus 50% L-WRN conditioned media (ATCC, cat. CRL-3276), 50 ng/mL recombinant human EGF recombinant protein (hEGF; Thermo Fisher Scientific, cat. PHG0311), 10 ng/mL recombinant human fibroblast growth factor 10 (hGFG-10; PeproTech, cat. 100-26), 1 ng/mL recombinant human fibroblast growth factor 2 (hFGF-2; PeproTech, cat. 100-18B), and 1 µM prostaglandin E2 (PGE2; Tocris, cat. 2296). The 227483-062-R1-J1-PDC line was cultured in Panc media, containing all 6E components except hFGF-2, with the addition of 500 nM SB-431542 (Selleckchem, cat. S1067) and 10 nM gastrin (Tocris, cat. 3006). […]

[1] = second compound 0.0316 µM, first compound 0.0316 µM
[2] = second compound 0.0316 µM, first compound 0.1 µM
[3] = second compound 0.0316 µM, first compound 0.316 µM
[4] = second compound 0.0316 µM, first compound 1 µM
[5] = second compound 0.1 µM, first compound 0.0316 µM
[6] = second compound 0.1 µM, first compound 0.1 µM
[7] = second compound 0.1 µM, first compound 0.316 µM
[8] = second compound 0.1 µM, first compound 1 µM
[9] = second compound 0.316 µM, first compound 0.0316 µM
[10] = second compound 0.316 µM, first compound 0.1 µM
[11] = second compound 0.316 µM, first compound 0.316 µM
[12] = second compound 0.316 µM, first compound 1 µM
[13] = second compound 1 µM, first compound 0.0316 µM
[14] = second compound 1 µM, first compound 0.1 µM
[15] = second compound 1 µM, first compound 0.316 µM
[16] = second compound 1 µM, first compound 1 µM
[17] = second compound 3.16 µM, first compound 0.0316 µM
[18] = second compound 3.16 µM, first compound 0.1 µM
[19] = second compound 3.16 µM, first compound 0.316 µM
[20] = second compound 3.16 µM, first compound 1 µM
[21] = second compound 10 µM, first compound 0.0316 µM
[22] = second compound 10 µM, first compound 0.1 µM
[23] = second compound 10 µM, first compound 0.316 µM
[24] = second compound 10 µM, first compound 1 µM
[25] = second compound 0.0316 µM, first compound 0.00316 µM
[26] = second compound 0.0316 µM, first compound 0.01 µM
[27] = second compound 0.1 µM, first compound 0.00316 µM
[28] = second compound 0.1 µM, first compound 0.01 µM
[29] = second compound 0.316 µM, first compound 0.00316 µM
[30] = second compound 0.316 µM, first compound 0.01 µM
[31] = second compound 1 µM, first compound 0.00316 µM
[32] = second compound 1 µM, first compound 0.01 µM
[33] = second compound 3.16 µM, first compound 0.00316 µM
[34] = second compound 3.16 µM, first compound 0.01 µM
[35] = second compound 10 µM, first compound 0.00316 µM
[36] = second compound 10 µM, first compound 0.01 µM
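Further: spheroids exposed to agents for seven days before readout.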
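Wherever viability, T/C is given: 100% = DMSO vehicle control viability.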

SMILES: CC(Nc1ccc2c(c1)OCCn1cc(N3C(=O)OCC3C(F)F)nc1-2)C(N)=O (stereo unspecified) + CN1CCN(c2cc(C(=O)Nc3cc4cc(-c5cnn(C)c5)ccc4cn3)ccn2)CC1
- IC50 (second compound 0.0316 µM): 432 nM
- IC50 (second compound 0.1 µM): 32 nM
- IC50 (second compound 0.316 µM): < 31.6 nM
- IC50 (second compound 1 µM): < 31.6 nM
- IC50 (second compound 3.16 µM): < 31.6 nM
- IC50 (second compound 10 µM): < 31.6 nM
- viability, T/C [1]: 76.2%
- viability, T/C [2]: 71.2%
- viability, T/C [3]: 50.8%
- viability, T/C [4]: 41%
- viability, T/C (second compound 0.0316 µM, first compound 3.16 µM): 28.9%
- viability, T/C (second compound 0.0316 µM, first compound 10 µM): 23.2%
- viability, T/C [5]: 51.8%
- viability, T/C [6]: 44%
- viability, T/C [7]: 36.4%
- viability, T/C [8]: 41.6%
- viability, T/C (second compound 0.1 µM, first compound 3.16 µM): 23.2%
- viability, T/C (second compound 0.1 µM, first compound 10 µM): 17.8%
- viability, T/C [9]: 26.9%
- viability, T/C [10]: 20.5%
- viability, T/C [11]: 13.6%
- viability, T/C [12]: 13.5%
- viability, T/C (second compound 0.316 µM, first compound 3.16 µM): 8.04%
- viability, T/C (second compound 0.316 µM, first compound 10 µM): 5.9%
- viability, T/C [13]: 7.59%
- viability, T/C [14]: 8.7%
- viability, T/C [15]: 6.98%
- viability, T/C [16]: 8.35%
- viability, T/C (second compound 1 µM, first compound 3.16 µM): 6.35%
- viability, T/C (second compound 1 µM, first compound 10 µM): 5.58%
- viability, T/C [17]: 7.77%
- viability, T/C [18]: 7.38%
- viability, T/C [19]: 6.16%
- viability, T/C [20]: 6.78%
- viability, T/C (second compound 3.16 µM, first compound 3.16 µM): 7.18%
- viability, T/C (second compound 3.16 µM, first compound 10 µM): 6.1%
- viability, T/C [21]: 6.06%
- viability, T/C [22]: 4.09%
- viability, T/C [23]: 2.84%
- viability, T/C [24]: 6.87%
- viability, T/C (second compound 10 µM, first compound 3.16 µM): 3.27%
- viability, T/C (second compound 10 µM, first compound 10 µM): 2.51%

SMILES: CCN1CCN(Cc2ccc(Nc3ncc(F)c(-c4cc(F)c5nc(C)n(C(C)C)c5c4)n3)nc2)CC1 + CN1CCN(c2cc(C(=O)Nc3cc4cc(-c5cnn(C)c5)ccc4cn3)ccn2)CC1
- IC50 (second compound 0.0316 µM): > 1000 nM
- IC50 (second compound 0.1 µM): > 1000 nM
- IC50 (second compound 0.316 µM): < 3.16 nM
- IC50 (second compound 1 µM): < 3.16 nM
- IC50 (second compound 3.16 µM): < 3.16 nM
- IC50 (second compound 10 µM): < 3.16 nM
- viability, T/C [25]: 91.4%
- viability, T/C [26]: 85.2%
- viability, T/C [1]: 73.7%
- viability, T/C [2]: 79.6%
- viability, T/C [3]: 132%
- viability, T/C [4]: 181%
- viability, T/C [27]: 72.8%
- viability, T/C [28]: 55.6%
- viability, T/C [5]: 64.6%
- viability, T/C [6]: 75.3%
- viability, T/C [7]: 96.8%
- viability, T/C [8]: 157%
- viability, T/C [29]: 42.6%
- viability, T/C [30]: 43.2%
- viability, T/C [9]: 48.1%
- viability, T/C [10]: 53.1%
- viability, T/C [11]: 81.8%
- viability, T/C [12]: 88.4%
- viability, T/C [31]: 10.7%
- viability, T/C [32]: 5.74%
- viability, T/C [13]: 6.1%
- viability, T/C [14]: 7.58%
- viability, T/C [15]: 12%
- viability, T/C [16]: 12.2%
- viability, T/C [33]: 9.03%
- viability, T/C [34]: 6.91%
- viability, T/C [17]: 7.06%
- viability, T/C [18]: 8.11%
- viability, T/C [19]: 10.9%
- viability, T/C [20]: 11.1%
- viability, T/C [35]: 9.28%
- viability, T/C [36]: 1.85%
- viability, T/C [21]: 3.61%
- viability, T/C [22]: 4.38%
- viability, T/C [23]: 8.89%
- viability, T/C [24]: 4.27%

SMILES: COc1c(OCCCN2CCOCC2)ccc2c3n(c(=NC(=O)c4cnc(N)nc4)nc12)CCN3 + CN1CCN(c2cc(C(=O)Nc3cc4cc(-c5cnn(C)c5)ccc4cn3)ccn2)CC1
- IC50 (second compound 0.0316 µM): 21.1 nM
- IC50 (second compound 0.1 µM): 9 nM
- IC50 (second compound 0.316 µM): < 3.16 nM
- IC50 (second compound 1 µM): < 3.16 nM
- IC50 (second compound 3.16 µM): < 3.16 nM
- IC50 (second compound 10 µM): < 3.16 nM
- viability, T/C [25]: 77%
- viability, T/C [26]: 67.5%
- viability, T/C [1]: 34.4%
- viability, T/C [2]: 34.8%
- viability, T/C [3]: 18.3%
- viability, T/C [4]: 7.77%
- viability, T/C [27]: 54.5%
- viability, T/C [28]: 51.3%
- viability, T/C [5]: 34.6%
- viability, T/C [6]: 16.8%
- viability, T/C [7]: 13.2%
- viability, T/C [8]: 2.93%
- viability, T/C [29]: 35.2%
- viability, T/C [30]: 21.1%
- viability, T/C [9]: 11.8%
- viability, T/C [10]: 9.4%
- viability, T/C [11]: 5.28%
- viability, T/C [12]: 1.37%
- viability, T/C [31]: 9.4%
- viability, T/C [32]: 8.16%
- viability, T/C [13]: 8.92%
- viability, T/C [14]: 6.58%
- viability, T/C [15]: 5.37%
- viability, T/C [16]: 4.98%
- viability, T/C [33]: 5.32%
- viability, T/C [34]: 5.77%
- viability, T/C [17]: 8.53%
- viability, T/C [18]: 6.16%
- viability, T/C [19]: 7.48%
- viability, T/C [20]: 4.29%
- viability, T/C [35]: 7.43%
- viability, T/C [36]: 2.01%
- viability, T/C [21]: 3.89%
- viability, T/C [22]: 2.57%
- viability, T/C [23]: 3.58%
- viability, T/C [24]: 2.62%
